We go through two molecules from US9322032B2, “Arabidopsis ring E3 ubiquitin ligase for promotion of plant germination” (INDUSTRY-ACADEMIC COOPERATION FOUNDATION, YONSEI UNIVERSITY, priority 2011, dated 2016).

The test system of one data set is AtAIRP2 gene promoter. The data set is described as follows: Histochemical GUS assay of AtAIRP2 promoter activity. The data set is classed as in vivo, Arabidopsis thaliana. To be noted: 100 μM ABA, 3 hours. On the procedure:
[…] After removal of the acetone, the plant was washed 3 times with rincing solution containing 50 mM NaPO4, 1 mM K3Fe(CN)6, and 1 mM K4Fe(CN)6, and immersed in 2 mM X-Gluc (5-bromo-4-chloro-3-indolyl glucuronide, sigma) and vacuumed for 1 min. After staining at 37° C. in the dark until the color was changed, the plant was incubated in 90% ethanol to remove chlorophyll.
(§1) The AtAIRP2 gene expressions in various abiotic stresses were analyzed by RT-PCR. After treatments of low-temperature (12 hours and 24 hours), drought (1 hour and 2 hours), salt (1.5 hour and 3 hours) and ABA hormone (1.5 hour and 3 hours) stresses, RNA from each of samples was extracted to analyze the gene expression patterns. As a result, it was determined that the gene expression levels of stress treatments were increased than those of non-stress treatments, thereby the AtAIRP2 gene expression is induced by salt, low-temperature, drought and ABA hormone stresses (FIG. 1). In addition, the AtAIRP2 protein expressions in various abiotic stresses were analyzed by histochemical GUS assay. After treatments of ABA hormone (3 hours) and drought (2 hours) stresses, the degree of the staining was analyzed. As a result, it was determined that the degrees of the staining of stress treatments were increased than those of before the stress treatments (FIG. 2).

The test system of the next data set is AtAIRP2 gene. Briefly: AtAIRP2 gene expression by RT-PCR after stress treatment. The data set is classed as in vivo, Arabidopsis thaliana. To be noted: 100 μM ABA, 1.5 hour and 3 hours, 2-week-old wild type seedlings. On the procedure: In order to determine expressions of the AtAIRP2 gene to drought stress, the wild type Arabidopsis thaliana seedlings which were grown on medium for 2 weeks were exposed in the air, and sampled after 1 hour and 2 hours. In order to determine expressions of the AtAIRP2 gene to salt stress, the wild type Arabidopsis thaliana seedlings which were grown on medium for 2 weeks were treated with 300 mM sodium chloride, and sampled after 1.5 hour and 3 hours. In order to determine expressions of the AtAIRP2 gene to low-temperature stress, the wild type Arabidopsis thaliana seedlings which were grown on medium for 2 weeks were incubated at 4° C. for 12 hours and 24 hours, and sampled. […]
as §1, with “After treatments of low-temperature (12 hours and 24 hours), drought (1 hour and 2 hours), salt (1.5 hour and 3 hours) and ABA hormone (1.5 hour and 3 hours) stresses, RNA from each of samples was extracted to analyze the gene expression patterns.” left out

The target in the next data set is T1, E3 ubiquitin ligase (Arabidopsis thaliana, UniProt Q9M022).
T1 construct: the ORF of the AtAIRP2 gene was subcloned into pMAL-X vector in-frame with MBP; made in house; host or cells: Escherichia coli BL21-CodonPlus (DE3) RIL
T1 sequence (Q9M022 1-242): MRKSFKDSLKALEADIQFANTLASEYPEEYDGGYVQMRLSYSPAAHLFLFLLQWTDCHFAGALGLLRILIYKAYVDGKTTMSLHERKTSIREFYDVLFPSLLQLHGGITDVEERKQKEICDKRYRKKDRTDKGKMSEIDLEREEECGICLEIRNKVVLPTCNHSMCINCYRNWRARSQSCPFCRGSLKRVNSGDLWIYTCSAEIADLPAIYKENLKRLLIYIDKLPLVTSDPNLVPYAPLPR
The data set is described as follows: Self-ubiquitination assay (Western blot, anti-MBP and anti-ubiquitin). The note with it: with UBA1, UBC8, ubiquitin, 30° C., 1 hour. The data set is classed as biochemical. Here is the method: For the enzymatic activity analysis of the AtAIRP2 protein, the ORF of the AtAIRP2 gene was subcloned into pMAL-X vector in-frame with MBP (maltose-binding protein). 40 mM Tris-HCI, pH 7.5, 5 mM MgCl2, 2 mM ATP, 2 mM dithiothreitol (DTT), 300 ng/μL ubiquitin (Sigma), 25 μM MG132 (A.G. Scientific Inc.), 500 ng UBA1 (ABRC, www.arabidopsis.org), 500 ng UBC8 (ABRC, www.arabidopsis.org) and 500 ng MBP-AtAIRP2 were added to each of tubes and incubated at 30° C. After addition of sample buffer solution, the resultant was heated at 100° C. for 5min, and performed by Western blot using anti-MBP (New England Bio Labs) and anti-ubiquitin (Santa Cruz) antibodies.
Maltose-binding protein (MBP) was bound to the AtAIRP2 proteins. Then, the MBP-AtAIRP2 was incubated with UBA1, UBC8, ubiquitin and AtAIRP2 at 30° C. for 1 hour to perform Self-Ubiquitination, and performed by Western blot using MBP- and ubiquitin-specific antibodies to analyze changes in the protein levels. As a result, it was determined that the molecular weight of the AtAIRP2 protein was increased through Western blot using anti-MBP antibody, and the increase was induced due to ubiquitin (FIG. 3).
(In general: A western blot detects proteins with antibodies after separation by electrophoresis.)

In the case of `CC1=CC(=O)CC(C)(C)C1(O)/C=C/C(C)=C\C(=O)O` (stereo not drawn) [ABA], the “GUS signals (AtAIRP2 promoter activity)” value with AtAIRP2 gene promoter is reported as “markedly induced”. The AtAIRP2 gene expression result in the data set on AtAIRP2 gene is “induced”.

B1: AtAIRP2 protein: RING protein encoded by At5g01520 (SEQ ID NO:2), tested as maltose-binding protein fusion (protein)
chain: T1 sequence (Q9M022 1-242)
modifications: left off: large carriers
B1: the “enzymatic activity of E3 ubiquitin ligase” value with E3 ubiquitin ligase is listed as “possessed ability for enzymatic activity of E3 ubiquitin ligase”.
